From the supplement of paper PMC10307832

Columns and labels:
Test in all cases: relative viability (nuclei count vs DMSO), 5 days (fraction); higher = more cells survive
Idelalisib + Pictilisib = compound: CC[C@H](Nc1ncnc2[nH]cnc12)c1nc2cccc(F)c2c(=O)n1-c1ccccc1 [Idelalisib] + CS(=O)(=O)N1CCN(Cc2cc3nc(-c4cccc5[nH]ncc45)nc(N4CCOCC4)c3s2)CC1 [Pictilisib] (partner 1 µM)
In short: (§1)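 Relative viability equals treated-well nuclei counts divided by vehicle-well nuclei counts. Counts came from 4× images of lung cancer cell lines grown in 1536-well plates for 5 days after pin-tool dosing on the day after seeding. Dosing used one drug alone or a fixed anchor-drug dose plus five library-drug doses (not always all listed) in √10 steps, and values are medians of duplicate plates.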

Pemetrexed + Bortezomib = compound: Nc1nc2[nH]cc(CCc3ccc(C(=O)N[C@@H](CCC(=O)O)C(=O)O)cc3)c2c(=O)[nH]1 [Pemetrexed] + CC(C)C[C@H](NC(=O)[C@H](Cc1ccccc1)NC(=O)c1cnccn1)B(O)O [Bortezomib] (partner 0.002 µM)
In short: as §1

Pemetrexed + Phenformin = compound: Nc1nc2[nH]cc(CCc3ccc(C(=O)N[C@@H](CCC(=O)O)C(=O)O)cc3)c2c(=O)[nH]1 [Pemetrexed] + N=C(N)NC(=N)NCCc1ccccc1 [Phenformin] (partner 250 µM)
In short: as §1

Pemetrexed + AZD7762 = compound: Nc1nc2[nH]cc(CCc3ccc(C(=O)N[C@@H](CCC(=O)O)C(=O)O)cc3)c2c(=O)[nH]1 [Pemetrexed] + NC(=O)Nc1cc(-c2cccc(F)c2)sc1C(=O)N[C@H]1CCCNC1 [AZD7762] (partner 0.2 µM)
In short: as §1

Cell Line | relative viability (Idelalisib + Pictilisib; first compound 0.04 µM) | relative viability (Idelalisib + Pictilisib; first compound 0.1265 µM) | relative viability (Idelalisib + Pictilisib; first compound 0.4 µM) | relative viability (Idelalisib + Pictilisib; first compound 1.265 µM) | relative viability (Idelalisib + Pictilisib; first compound 4 µM) | relative viability (Pemetrexed + Bortezomib; first compound 0.002 µM) | relative viability (Pemetrexed + Bortezomib; first compound 0.006325 µM) | relative viability (Pemetrexed + Bortezomib; first compound 0.02 µM) | relative viability (Pemetrexed + Bortezomib; first compound 0.06325 µM) | relative viability (Pemetrexed + Bortezomib; first compound 0.2 µM) | relative viability (Pemetrexed + Phenformin; first compound 0.002 µM) | relative viability (Pemetrexed + Phenformin; first compound 0.006325 µM) | relative viability (Pemetrexed + Phenformin; first compound 0.02 µM) | relative viability (Pemetrexed + Phenformin; first compound 0.06325 µM) | relative viability (Pemetrexed + Phenformin; first compound 0.2 µM) | relative viability (Pemetrexed + AZD7762; first compound 0.006325 µM) | relative viability (Pemetrexed + AZD7762; first compound 0.02 µM) | relative viability (Pemetrexed + AZD7762; first compound 0.06325 µM) | relative viability (Pemetrexed + AZD7762; first compound 0.2 µM) | relative viability (Pemetrexed + AZD7762; first compound 0.002 µM)
HCC-78 | 0.222 | 0.208 | 0.206 | 0.21 | 0.228 | 0.369 | 0.436 | 0.46 | 0.294 | 0.322 | 0.446 | 0.694 | 0.599 | 0.361 | 0.255 | 0.505 | 0.42 | 0.3 | 0.236 | 
HCC-366 | 0.138 | 0.177 | 0.0975 | 0.165 | 0.146 | 0.97 | 1.04 | 1.13 | 1.05 | 0.661 | 0.515 | 0.616 | 0.672 | 0.612 | 0.571 | 0.239 | 0.308 | 0.254 | 0.158 | 0.228
HCC-827 | 0.995 | 1.06 | 1.05 | 1.09 | 0.843 | 0.961 | 1.02 | 1.01 | 1.01 | 0.748 | 0.366 | 0.417 | 0.436 | 0.4 | 0.37 | 0.276 | 0.26 | 0.183 | 0.164 | 0.192
HOP-62 | 0.883 | 0.712 |  | 0.649 | 0.792 | 0.741 | 0.862 | 0.617 | 0.722 | 0.668 | 0.567 | 0.675 | 0.659 | 0.716 | 0.611 | 0.534 | 0.45 | 0.762 | 0.483 | 0.485
LC-2-ad | 0.534 | 0.516 | 0.415 | 0.467 | 0.417 | 0.981 | 1.01 | 1.02 | 0.215 | 0.148 | 0.518 | 0.567 | 0.492 | 0.335 | 0.374 | 0.816 | 0.43 | 0.276 | 0.233 | 0.726
LCLC-97TM1 | 0.236 | 0.182 |  | 0.231 | 0.152 | 0.523 | 1.08 | 0.679 | 0.32 | 0.131 | 0.432 | 0.392 | 0.466 | 0.44 | 0.396 | 0.164 | 0.273 | 0.243 | 0.127 | 0.338
LCLC-103H | 0.756 | 0.63 | 0.517 | 0.586 | 0.574 | 1.08 | 1.01 | 1 | 1.23 | 1.02 | 0.316 | 0.333 | 0.364 | 0.351 | 0.3 | 0.774 | 0.792 | 0.775 | 0.695 | 0.642
LOU-NH91 | 0.532 | 0.478 | 0.509 | 0.504 | 0.575 | 0.515 | 0.558 | 0.52 | 0.467 | 0.472 | 0.691 | 0.733 | 0.739 | 0.572 | 0.404 | 0.738 | 0.715 | 0.44 | 0.394 | 0.678
LU99A | 0.324 | 0.339 | 0.263 | 0.385 | 0.279 | 1.05 | 1.09 | 1.17 | 0.952 | 0.948 | 0.784 | 0.93 | 0.848 | 0.779 | 0.786 | 0.376 | 0.371 | 0.293 | 0.178 | 0.356
LXF-289 | 0.894 | 0.78 | 0.722 | 0.873 | 0.745 | 0.987 | 0.993 | 1.08 | 0.976 | 0.943 | 0.497 | 0.504 | 0.525 | 0.52 | 0.479 | 1.02 | 1.14 | 1.09 | 1.02 | 1.06
NCI-H23 | 0.689 | 0.489 | 0.381 | 0.451 | 0.462 | 0.865 | 0.924 | 1.02 | 1.06 | 0.725 | 0.747 | 0.758 | 0.809 | 0.804 | 0.828 | 0.231 | 0.232 | 0.235 | 0.245 | 0.253
NCI-H322M | 0.546 | 0.584 | 0.444 | 0.508 | 0.549 | 1.32 | 1.06 | 1.22 | 1.29 | 1.19 | 0.861 | 0.747 | 0.799 | 0.741 | 0.613 | 0.634 | 0.565 | 0.637 | 0.557 | 0.709
NCI-H441 | 0.522 | 0.451 |  | 0.375 | 0.393 | 0.572 | 0.602 | 0.914 | 0.825 | 0.389 | 0.594 | 0.793 | 0.515 | 0.555 | 0.393 | 1.1 | 1.11 | 1.03 | 0.291 | 1.12
NCI-H460 | 0.363 | 0.318 | 0.315 | 0.36 | 0.359 | 1.06 | 1 | 1.16 | 0.177 | 0.0656 | 0.432 | 0.452 | 0.56 | 0.247 | 0.0552 | 0.707 | 0.657 | 0.194 | 0.0726 | 0.589
NCI-H596 | 0.412 | 0.402 | 0.389 | 0.405 | 0.65 | 1.22 | 0.869 | 1.14 | 0.851 | 0.71 | 0.766 | 0.702 | 0.775 | 0.751 | 0.565 | 1.1 | 1.07 | 0.472 | 0.362 | 1.17
NCI-H647 | 0.448 | 0.452 | 0.475 | 0.377 | 0.393 |  | 1.07 | 1.35 | 0.703 | 0.295 | 0.457 | 0.445 | 0.598 | 0.482 | 0.236 | 0.626 | 0.435 | 0.333 | 0.143 | 0.488
